Data published in patent publication EP1759703A1, “IMMUNISTIMULATIVE AND INTERFERONOGENOUS AGENT” (Akciju Sabiedriba "Olainfarm", priority 2004, dated 2006).
Structures can show the parent of a compound that is named as a salt. Where two headings read alike, the source gives them in different places.

Legend:
[1] = tested on: natural killers (NK-cells); assay: NK-cell functional activity test (lysis of K-562 target cells, fluorescent tag); assay type: cell-based; details: Homo sapiens, ratio of treated to untreated NK-cells activity, read-out: Relative value of change of NK-activity over DMAAM compounds
Text: Immunostimulating activity. Determination of the effect of claimed compounds on functional activity of immunocomptent human cells.
Immunocompetent cells - natural killers (NK-cells) - relate to the system of natural human body resistance. Identification of the status of this immune system link gives important information about the state of the body immune status. To assess the state of this immune system link depending on the presence of studied compounds a functional test was used to determine the NK-cells capacity to expose to lysis the target cells of tumor myeloblast culture K-562, the identification of which was implemented using a fluorescent tag. NK-cells activity was identified in accordance with the number of the target cells K-562 "killed" by them which were evaluated based on the intensity of fluorescent glowing in the area characteristic for killed cells and against control results (i.e. when NK-cells are absent).
The influence level of the studied drugs on NK-cells activity was assessed based on the value of the NK-cells activity ratio when treated with these medications to the activity of untreated NK-cells in the lysis process of target cells of the test culture, line K-562.
To select medication doses and concentrations while studying their activity, their minimal toxic dose against target cells and mononuclear cells of peripheral blood was preliminarily measured.
This defines a considerable immunostimulating effect of offered substances.
In addition immunostimulating effect mainly occurs in polymeric compounds (PVASA - DMAAM, VA - VASA - DMAAM, VP - VASA - DMAAM), and with an increase of drug concentration their stimulating impact on NK-cells activity enhances. Table 1. Change of NK-cells activity over 3.5-dimethyl-1-adamantylamine.

[2] = tested on: white mice of both sexes, line "Balb"; assay: Acute toxicity, single oral administration, mice; assay type: in vivo
Protocol: The toxicity level of claimed compounds was assessed according to a general index of acute toxicity - average fatal dose of LD50. The study was held with a single oral administration of the medication to white mice of both sexes, line "Balb", weight 18 - 20 g, and to white rats, line "Vistar", weight 130 - 250 g (female) and 225 - 370 g (male). The medications were administered to mice in the dose ranging from 25 to 1100 mg/kg, and to rats in the range of 480 - 2315 mg/kg.

[3] = tested on: mononuclear cells of peripheral blood (NK-cells); assay type: cell-based, human; details: IU of interferon antiviral activity as regards the virus of vesicular stomatitis
Solubility (qualitative) = assay type: physicochemical

Row | SMILES | fold induction at 2 µg/mL ([1]; K562, concentration 2 mcg/ml (as calculated per DMAAM)) | fold induction at 10 µg/mL ([1]; K562, concentration 10 mcg/ml (as calculated per DMAAM)) | fold induction at 50 µg/mL ([1]; K562, concentration 50 mcg/ml (as calculated per DMAAM)) | LD50 [2] [mg/kg] | Interferon induction activity of NK-cells ([3]; concentration 2 mcg/ml (as calculated per DMAAM)) [IU/ml] | Interferon induction activity of NK-cells ([3]; concentration 10 mcg/ml (as calculated per DMAAM)) [IU/ml] | Interferon induction activity of NK-cells ([3]; concentration 50 mcg/ml (as calculated per DMAAM)) [IU/ml] | solubility in water (Solubility (qualitative))
1 | CC12CC3CC(C)(C1)CC(N)(C3)C2 [HC - DMAAM, hydrochloride 3.5-dimethyl-1-adamantylamine] | 1 | 1.2 | 1.6 | 363 | 5.77 | 13.00 | 14.46 | 
2 | CC12CC3CC(C)(C1)CC(N)(C3)C2 [3.5-dimethyl-1-adamantylamine] |  |  |  |  |  |  |  | insoluble in water
